Assay results reported in ChEMBL document CHEMBL5338805, “Discovery of the First Subnanomolar PPARα/δ Dual Agonist for the Treatment of Cholestatic Liver Diseases” (J Med Chem, 2023).
The source made the active and inactive calls. The rule behind the calls is not given here.

Key:
[1] = Down-streaming of Oatp1 gene expression in C57BL/6JNifdc mouse liver assessed as hepatic resorption of bile acid administered at 0.03 mg/kg, po for 3 days measured after 6 hrs of last administration by real-time PCR analysis; assay type: ADME, organism-based; settings: in vivo, 78 h
[2] = Acute toxicity in mouse assessed as lethal dose administered orally for 14 days; settings: in vivo, po, 336 h, time 14 day
[3] = target: Nuclear receptor ROR-beta (Homo sapiens) (UniProt Q92753); assay: Agonist activity at RORbeta (unknown origin) transfected in african green monkey COS7 cells assessed transactivation incubated at 1 uM for 16 hrs by luciferase assay; assay type: cell-based
[4] = Anti-cholestatic activity in ANIT-induced C57BL/6Nifdc mouse model assessed as decrease in liver alkaline phosphatase at 0.03 to 0.1 mg/kg, po upto 42 hrs measured after 48 hrs; assay type: ADME, organism-based; settings: in vivo, 90 h, dose 0.03-0.1 mg/kg
[5] = Anti-cholestatic activity in ANIT-induced C57BL/6Nifdc mouse model assessed as decrease in liver HCA at 0.03 to 0.1 mg/kg, po upto 42 hrs measured after 48 hrs; assay type: ADME, organism-based; settings: in vivo, 90 h, dose 0.03-0.1 mg/kg
[6] = target: Voltage-gated inwardly rectifying potassium channel KCNH2 (Homo sapiens, UniProt Q12809); assay: Inhibition of human ERG by whole cell patch clamp method; assay type: toxicity
[7] = Stability in human liver microsome assessed as half life at 1 uM by LC/MS-8050 analysis; assay type: ADME; settings: liver microsomes
[8] = Anti-cholestatic activity in ANIT-induced C57BL/6Nifdc mouse model assessed as downregulation of proinflammatory Nos2 gene at 0.03 to 0.1 mg/kg, po upto 42 hrs measured after 48 hrs; assay type: ADME, organism-based; settings: in vivo, 90 h, dose 0.03-0.1 mg/kg
[9] = target: Vitamin D3 receptor (Homo sapiens) (UniProt P11473); assay: Agonist activity at VDR (unknown origin) transfected in african green monkey COS7 cells assessed transactivation incubated at 1 uM for 16 hrs by luciferase assay; assay type: cell-based
[10] = Anti-fibrosis activity in Ccl4-induced C57BL/6Nifdc mouse model assessed as reversal of increased Col1a1 administered orally for 3 weeks by Western blot analysis; assay type: ADME; settings: in vivo, po, 504 h, dose 0.03-0.1 mg/kg
[11] = Stability in human liver microsome assessed as intrinsic clearance at 1 uM for 0 to 45 mins by LC/MS-8050 analysis; assay type: ADME; settings: liver microsomes, time 0-45 min, read-out: CLH
[12] = Anti-cholestatic activity in ANIT-induced C57BL/6Nifdc mouse model assessed as downregulation of proinflammatory Ccl4 gene at 0.03 to 0.1 mg/kg, po upto 42 hrs measured after 48 hrs; assay type: ADME, organism-based; settings: in vivo, 90 h, dose 0.03-0.1 mg/kg
[13] = Anti-cholestatic activity in ANIT-induced C57BL/6Nifdc mouse model assessed as decrease in liver 12-OCDCA at 0.03 to 0.1 mg/kg, po upto 42 hrs measured after 48 hrs; assay type: ADME, organism-based; settings: in vivo, 90 h, dose 0.03-0.1 mg/kg
[14] = Oral bioavailability in fasted Sprague-Dawley rat at 10 mg/kg measured at 0.083 to 24 hrs by LC-MS/MS analysis; assay type: ADME, organism-based; settings: in vivo, time 0.083-24 hrs
[15] = target: Peroxisome proliferator-activated receptor delta (Homo sapiens) (UniProt Q03181); settings: filed as agonist, dose 0.625-10 µM
Description: Binding affinity to PPARdelta LBD (unknown origin) assessed as thermal stability by measuring change in melting temperature by thermal shift assay

[16] = Acute toxicity in mouse assessed as moribundity administered at 2000 mg/kg, po for 14 days; assay type: organism-based; settings: in vivo, 336 h, time 14 day
[17] = target: Oxysterols receptor LXR-alpha (Homo sapiens) (UniProt Q13133); assay: Agonist activity at LXRalpha (unknown origin) transfected in african green monkey COS7 cells assessed transactivation incubated at 1 uM for 16 hrs by luciferase assay; assay type: cell-based
[18] = Anti-cholestatic activity in ANIT-induced C57BL/6Nifdc mouse model assessed as downregulation of proinflammatory Tnf gene at 0.03 to 0.1 mg/kg, po upto 42 hrs measured after 48 hrs; assay type: ADME, organism-based; settings: in vivo, 90 h, dose 0.03-0.1 mg/kg
[19] = Anti-cholestatic activity in ANIT-induced C57BL/6Nifdc mouse model assessed as decrease in liver GCA at 0.03 to 0.1 mg/kg, po upto 42 hrs measured after 48 hrs; assay type: ADME, organism-based; settings: in vivo, 90 h, dose 0.03-0.1 mg/kg
[20] = Acute toxicity in mouse assessed as mortality administered orally for 14 days; settings: in vivo, po, 336 h, time 14 day
[21] = Anti-cholestatic activity in ANIT-induced C57BL/6Nifdc mouse model assessed as decrease in total p65 level at 0.03 to 0.1 mg/kg, po upto 42 hrs measured after 48 hrs by Western blot analysis; assay type: ADME, organism-based; settings: in vivo, 90 h, dose 0.03-0.1 mg/kg
[22] = target: Retinoic acid receptor beta (Homo sapiens) (UniProt P10826); assay: Agonist activity at RARbeta (unknown origin) transfected in african green monkey COS7 cells assessed transactivation incubated at 1 uM for 16 hrs by luciferase assay; assay type: cell-based
[23] = Clearance in fasted Sprague-Dawley rat at 10 mg/kg, po measured at 0.083 to 24 hrs by LC-MS/MS analysis; assay type: ADME, organism-based; settings: in vivo, time 0.083-24 hrs
[24] = Down-streaming of NTCP gene expression in C57BL/6JNifdc mouse liver assessed as hepatic resorption of bile acid administered at 0.03 to 0.1 mg/kg, po for 3 days measured after 6 hrs of last administration by real-time PCR analysis; assay type: ADME, organism-based; settings: in vivo, 78 h, dose 0.03-0.1 mg/kg, time 3.25 day
[25] = Down-streaming of NTCP gene expression in C57BL/6JNifdc mouse liver assessed as hepatic resorption of bile acid administered at 0.03 mg/kg, po for 3 days measured after 6 hrs of last administration by real-time PCR analysis; assay type: ADME, organism-based; settings: in vivo, 78 h
[26] = tested on: HEK293; assay: Cytotoxicity against HEK293 cells incubated upto 100 uM for 24 hrs by CCK8 assay; assay type: toxicity, cell-based; settings: human, hek293, 24 h
[27] = Anti-cholestatic activity in ANIT-induced C57BL/6Nifdc mouse model assessed as decrease in liver GHCA at 0.03 to 0.1 mg/kg, po upto 42 hrs measured after 48 hrs; assay type: ADME, organism-based; settings: in vivo, 90 h, dose 0.03-0.1 mg/kg
[28] = Anti-cholestatic activity in ANIT-induced C57BL/6Nifdc mouse model assessed as decrease in liver 3-DHCA at 0.03 to 0.1 mg/kg, po upto 42 hrs measured after 48 hrs; assay type: ADME, organism-based; settings: in vivo, 90 h, dose 0.03-0.1 mg/kg
[29] = Anti-cholestatic activity in ANIT-induced C57BL/6Nifdc mouse model assessed as decrease in phosphorylated p65 level at 0.03 to 0.1 mg/kg, po upto 42 hrs measured after 48 hrs by Western blot analysis; assay type: ADME, organism-based; settings: in vivo, 90 h, dose 0.03-0.1 mg/kg
[30] = Anti-cholestatic activity in ANIT-induced C57BL/6Nifdc mouse model assessed as decrease in liver UCA at 0.03 to 0.1 mg/kg, po upto 42 hrs measured after 48 hrs; assay type: ADME, organism-based; settings: in vivo, 90 h, dose 0.03-0.1 mg/kg
[31] = Anti-cholestatic activity in ANIT-induced C57BL/6Nifdc mouse model assessed as decrease in liver CA at 0.03 to 0.1 mg/kg, po upto 42 hrs measured after 48 hrs; assay type: ADME, organism-based; settings: in vivo, 90 h, dose 0.03-0.1 mg/kg
[32] = Down-streaming of Cyp27a1 gene expression in C57BL/6JNifdc mouse liver assessed as hepatic resorption of bile acid administered at 0.03 to 0.1 mg/kg, po for 3 days measured after 6 hrs of last administration by real-time PCR analysis; assay type: ADME, organism-based; settings: in vivo, 78 h, dose 0.03-0.1 mg/kg, time 3.25 day
[33] = Anti-cholestatic activity in ANIT-induced C57BL/6Nifdc mouse model assessed as decrease in liver TCA at 0.03 to 0.1 mg/kg, po upto 42 hrs measured after 48 hrs; assay type: ADME, organism-based; settings: in vivo, 90 h, dose 0.03-0.1 mg/kg

Sequence of Vitamin D3 receptor (Homo sapiens) (P11473 whole entry): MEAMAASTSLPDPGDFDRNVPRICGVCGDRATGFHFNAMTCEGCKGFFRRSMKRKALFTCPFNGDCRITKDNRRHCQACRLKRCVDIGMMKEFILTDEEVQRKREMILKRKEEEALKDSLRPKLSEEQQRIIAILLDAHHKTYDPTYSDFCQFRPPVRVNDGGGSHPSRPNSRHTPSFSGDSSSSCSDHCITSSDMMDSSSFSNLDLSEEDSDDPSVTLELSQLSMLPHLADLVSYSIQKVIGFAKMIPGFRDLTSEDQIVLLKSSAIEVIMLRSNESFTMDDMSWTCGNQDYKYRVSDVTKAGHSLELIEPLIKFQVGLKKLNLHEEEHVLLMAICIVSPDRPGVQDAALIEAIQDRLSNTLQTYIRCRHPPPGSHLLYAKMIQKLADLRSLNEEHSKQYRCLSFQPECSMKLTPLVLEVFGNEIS
Sequence of Voltage-gated inwardly rectifying potassium channel KCNH2 (Q12809 whole entry): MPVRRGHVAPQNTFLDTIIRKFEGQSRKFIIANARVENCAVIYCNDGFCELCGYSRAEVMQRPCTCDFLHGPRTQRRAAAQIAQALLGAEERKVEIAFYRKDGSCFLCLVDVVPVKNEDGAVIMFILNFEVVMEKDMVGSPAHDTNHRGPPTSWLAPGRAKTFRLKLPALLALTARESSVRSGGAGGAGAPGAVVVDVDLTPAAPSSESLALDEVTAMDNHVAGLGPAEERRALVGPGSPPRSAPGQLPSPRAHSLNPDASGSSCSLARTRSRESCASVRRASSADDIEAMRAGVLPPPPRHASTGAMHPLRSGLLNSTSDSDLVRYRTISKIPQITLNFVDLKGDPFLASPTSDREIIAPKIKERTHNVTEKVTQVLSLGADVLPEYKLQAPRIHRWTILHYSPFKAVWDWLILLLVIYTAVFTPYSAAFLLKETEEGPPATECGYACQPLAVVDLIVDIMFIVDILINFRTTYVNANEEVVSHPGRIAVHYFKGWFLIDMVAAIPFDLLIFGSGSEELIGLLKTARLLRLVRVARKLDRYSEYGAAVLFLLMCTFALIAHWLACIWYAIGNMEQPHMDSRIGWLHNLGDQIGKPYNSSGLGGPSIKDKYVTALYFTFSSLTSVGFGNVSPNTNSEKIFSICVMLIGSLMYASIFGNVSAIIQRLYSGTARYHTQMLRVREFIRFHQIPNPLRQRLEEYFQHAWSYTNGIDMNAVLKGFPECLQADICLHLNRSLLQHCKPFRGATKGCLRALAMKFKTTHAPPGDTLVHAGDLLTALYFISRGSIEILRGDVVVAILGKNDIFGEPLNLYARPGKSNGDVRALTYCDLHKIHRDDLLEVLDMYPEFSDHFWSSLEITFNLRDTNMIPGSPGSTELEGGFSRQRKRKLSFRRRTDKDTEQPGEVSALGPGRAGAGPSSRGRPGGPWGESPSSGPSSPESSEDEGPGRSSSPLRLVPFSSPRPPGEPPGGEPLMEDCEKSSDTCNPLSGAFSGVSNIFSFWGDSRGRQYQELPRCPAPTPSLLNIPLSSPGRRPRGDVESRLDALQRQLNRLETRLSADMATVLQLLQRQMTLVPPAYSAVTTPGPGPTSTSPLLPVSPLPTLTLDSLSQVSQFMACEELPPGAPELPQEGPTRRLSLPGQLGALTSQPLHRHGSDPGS
Sequence of Peroxisome proliferator-activated receptor delta (Homo sapiens) (Q03181 whole entry): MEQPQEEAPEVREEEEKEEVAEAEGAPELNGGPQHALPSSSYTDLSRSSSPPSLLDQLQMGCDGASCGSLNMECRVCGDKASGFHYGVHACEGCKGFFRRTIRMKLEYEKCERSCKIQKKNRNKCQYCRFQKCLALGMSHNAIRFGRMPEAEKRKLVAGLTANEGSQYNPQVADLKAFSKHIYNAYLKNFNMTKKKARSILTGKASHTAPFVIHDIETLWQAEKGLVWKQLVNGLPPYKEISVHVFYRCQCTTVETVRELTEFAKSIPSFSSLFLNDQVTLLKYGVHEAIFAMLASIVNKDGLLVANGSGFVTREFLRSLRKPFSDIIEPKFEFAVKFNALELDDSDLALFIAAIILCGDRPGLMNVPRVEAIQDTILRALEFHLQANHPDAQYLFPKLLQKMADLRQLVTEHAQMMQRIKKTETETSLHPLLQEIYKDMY
Sequence of Oxysterols receptor LXR-alpha (Homo sapiens) (Q13133 whole entry): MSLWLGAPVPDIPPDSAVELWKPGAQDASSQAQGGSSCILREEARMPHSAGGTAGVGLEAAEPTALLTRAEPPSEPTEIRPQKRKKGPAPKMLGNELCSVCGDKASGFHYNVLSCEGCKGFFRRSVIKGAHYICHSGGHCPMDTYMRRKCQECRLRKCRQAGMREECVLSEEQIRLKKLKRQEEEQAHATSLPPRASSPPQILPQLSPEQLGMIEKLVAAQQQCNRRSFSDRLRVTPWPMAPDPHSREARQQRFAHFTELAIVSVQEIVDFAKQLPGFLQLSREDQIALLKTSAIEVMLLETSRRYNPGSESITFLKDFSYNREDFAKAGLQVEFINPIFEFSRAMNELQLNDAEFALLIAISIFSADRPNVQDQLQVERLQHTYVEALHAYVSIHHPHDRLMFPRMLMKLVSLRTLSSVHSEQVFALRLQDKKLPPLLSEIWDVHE
Sequence of Retinoic acid receptor beta (Homo sapiens) (P10826 whole entry): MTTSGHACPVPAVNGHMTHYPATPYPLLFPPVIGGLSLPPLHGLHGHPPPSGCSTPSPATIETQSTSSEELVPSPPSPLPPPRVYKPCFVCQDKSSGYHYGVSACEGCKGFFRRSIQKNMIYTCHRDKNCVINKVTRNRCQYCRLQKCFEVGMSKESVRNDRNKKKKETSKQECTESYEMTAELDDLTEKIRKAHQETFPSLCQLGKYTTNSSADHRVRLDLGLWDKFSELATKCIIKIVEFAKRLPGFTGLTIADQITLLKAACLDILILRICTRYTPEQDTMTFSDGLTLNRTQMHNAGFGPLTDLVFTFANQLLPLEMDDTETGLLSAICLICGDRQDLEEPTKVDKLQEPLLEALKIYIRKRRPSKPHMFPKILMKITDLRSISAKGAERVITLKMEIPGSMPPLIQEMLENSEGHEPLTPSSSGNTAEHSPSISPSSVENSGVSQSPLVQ
Sequence of Nuclear receptor ROR-beta (Homo sapiens) (Q92753 whole entry): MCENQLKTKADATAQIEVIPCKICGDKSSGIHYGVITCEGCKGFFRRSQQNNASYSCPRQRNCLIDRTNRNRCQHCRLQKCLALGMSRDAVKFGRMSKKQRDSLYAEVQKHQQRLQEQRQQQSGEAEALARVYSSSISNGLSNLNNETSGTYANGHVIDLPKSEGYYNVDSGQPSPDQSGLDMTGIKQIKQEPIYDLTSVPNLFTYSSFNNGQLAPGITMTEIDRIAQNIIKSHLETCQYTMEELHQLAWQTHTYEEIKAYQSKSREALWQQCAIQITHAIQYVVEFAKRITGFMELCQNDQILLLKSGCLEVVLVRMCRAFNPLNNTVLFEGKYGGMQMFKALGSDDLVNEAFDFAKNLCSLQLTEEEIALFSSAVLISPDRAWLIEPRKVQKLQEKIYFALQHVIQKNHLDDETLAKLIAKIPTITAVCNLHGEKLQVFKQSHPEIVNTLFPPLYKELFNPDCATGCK

Cc1cc(CN2C(=O)CN(c3ccc(C(F)(F)F)cc3)C2=O)cc(C)c1OC(C)(C)C(=O)O
Activity [1]: Active | LD [2]: > 2000 mg/kg | Activity [3]: inactive | Activity [4]: Active | Activity [5]: Active | IC50 [6]: > 30 µM | half-life at 1 µM [7]: > 2 h | Activity [8]: Active | Activity [9]: inactive | Activity [10]: Dose-Dependent Effect | CLint scaled at 1 µM [11]: 6.24 mL/min/kg | Activity [12]: Active | Activity [13]: Active | bioavailability [14]: 105% | deltaTm [15]: Dose-Dependent Effect | Activity [16]: Non-Toxic | Activity [17]: inactive | Activity [18]: Active | Activity [19]: Active | Activity [20]: Non-Toxic | Activity [21]: Active | Activity [22]: inactive | CL [23]: 7.6 mL/min/kg | Activity [24]: Active | Activity [25]: Active | Activity [26]: Non-Toxic | Activity [27]: Active | Activity [28]: Active | Activity [29]: Active | Activity [30]: Active | Activity [31]: Active | Activity [32]: Active | Activity [33]: Active
